Like-named read-outs stand apart in the source and are kept apart here. Marks after values point to notes of the source that are not given here.
Key:
mice [1] = conditions: cited from earlier work
rats = conditions: ip; cited from earlier work
mice [2] = assay: Antiseizure activity and preliminary toxicity screening; assay type: in vivo; conditions: ip
mice [3] = assay: Rotarod test (neurotoxicity); assay type: in vivo; conditions: for Rotarod: neurotoxic at: mice, ip; for Number of animals active or toxic over the number tested: Rotarod;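 on all read-outs here: in vivo neurotoxicity screen run within the NIH Epilepsy Therapy Screening Program (ETSP, formerly Anticonvulsant Screening Program)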
Experimental: (§1) The assays were carried out within the Epilepsy Therapy Screening Program (ETSP, previously known as the Anticonvulsant Screening Program, ASP), Epilepsy Branch, National Institute of Neurological and Communicative Disorders and Stroke, National Institutes of Health in Rockville, MD, USA [23].
(§2) The obtained compounds were screened for antiseizure activity and neurotoxicity in vivo within the Epilepsy Therapy Screening Program (ETSP, previously known as the Anticonvulsant Screening Program, ASP), Epilepsy Branch, National Institute of Neurological and Communicative Disorders and Stroke, National Institutes of Health in Rockville, MD, USA [23].

mice [4] = conditions: for MES: active at: mice, ip; for Number of animals active or toxic over the number tested: MES
Experimental: as §1, §2

guinea pigs [5] = conditions: 0.5%, cited from earlier work
mice [6] = assay: 6 Hz test; assay type: in vivo; conditions: for Number of animals active or toxic over the number tested: 6 Hz
Experimental: The 6 Hz model test was carried out according to the protocol originally described by Brown et al. [54] and more recently by Barton et al. [55] and Kamiński et al. [47] and is a model of pharmacoresistant epilepsy [56].

mice [7] = assay: Formalin test (first screening); assay type: in vivo; conditions: ip
Experimental: Formalin test. The first screening in doses 15 and 30 mg/kg was performed at the Jagiellonian University-Medical College. […] After 30 min, animals were injected with 20 μL of a 0.5% formalin solution into the plantar surface of the hind paw. The total time spent by animal licking or biting the injected paw was assessed for the following 40 min.

mice [8] = assay: Tail immersion test (local anesthetic activity); assay type: in vivo
Experimental: The tail immersion test in mice. […] The method was performed by subcutaneous (sc) injection of the tested substance dissolved in saline, at a concentration range 0.06–2%, in a constant volume of 0.2 mL about 1 cm from the root of the mouse tail. Fifteen minutes later, the 3-cm distal part of the tail was immersed into temperature-controlled water (50 ± 0.5 °C). The reaction time (latency until the tail is pulled away) was measured by the means of a chronometer. In this assay the cut-off was 20 s [29].

guinea pigs [9] = assay: Corneal anesthesia; assay type: in vivo; conditions: 5 min
Experimental: A. Corneal anesthesia. […] The corneal reflex was examined by irritation of right eye conjunctiva (studied eye) and a left eye conjunctiva (control eye) by horsehair. The strength of local anesthetic activity was determined from the moment of solution instillation to the moment of reflex return. The presence or lack of corneal reflex were assessed. The eye conjunctiva irritation was done 6 times (every 5 s) with the interval of 5 min during the first 30 min [31].

guinea pigs [10] = assay: Infiltration anesthesia (intradermal wheal test); assay type: in vivo
Experimental: A painful reaction to a prick of the skin at the centre of the wheal three times and every 5 s with 5 min intervals during the first 30 min of observation was tested. The experiment was continued to achieve a return of a reaction to the prick. The control wheal was done by an intradermal injection of 0.1 mL of 0.9% NaCl [25]. Local anesthesia was determined by calculating the ratio of the number of positive responses (no flinch) to the number of negative responses (flinch).

mice [11] = assay: Subcutaneous pentylenetetrazole seizure test (ScPTZ, SCMET); assay type: in vivo; conditions: mice, ip, 0.5 h
Experimental: as §1

mice [12] = conditions: ip, cited from earlier work
mice [13] = conditions: 32 mA, ip; cited from earlier work
mice [14] = conditions: ip; cited from earlier work

SMILES: Cc1cccc(C)c1NC(=O)C1CCCCN1C (centres unmarked) [Mepivacaine]
- Prolongation of the time reaction (mice [1]; 1.0%): 94.63%
- Reaction time to painful stimulus (mice [1]; 1.0%): 14.13 ± 2.67 s
- Prolongation of the time reaction (mice [1]; 2.0%): 116.67%
- Reaction time to painful stimulus (mice [1]; 2.0%): 15.73 ± 2.09 s

SMILES: NC(=O)N1c2ccccc2CC(=O)c2ccccc21 [Oxcarbazepine]
- SNL MED (rats): 10 mg/kg

SMILES: Cc1cccc(Cl)c1OCC(=O)N[C@@H](C)C(=O)O [Compound 15, S-(-)-(2-(2-chloro-6-methylphenoxy)acetyl)alanine]
- Antiseizure activity and preliminary toxicity screening: result (mice [2]): No activity

SMILES: Cc1cccc(Cl)c1OCCNC(C)(CO)CO [Compound 7, 2-((2-(2-chloro-6-methylphenoxy)ethyl)amino)-2-methylpropane-1,3-diol]
- Rotarod: neurotoxic at (mice [3]; 0.5 h): MES: active at 100 Rotarod: neurotoxic at 100 mg/kg
- melting point: 83 to 85 °C
- MES: active at (mice [4]; 0.5 h): MES: active at 100 Rotarod: neurotoxic at 100 mg/kg

SMILES: CCN(CC)CC(=O)Nc1c(C)cccc1C [Lidocaine]
- Inhibition of pain reaction (guinea pigs [5]; 240 min): 22.2%
- Inhibition of pain reaction (guinea pigs [5]; 24 h): 0%

SMILES: Cc1cccc(Cl)c1OCCNCC(C)O (centres unmarked) [Compound 1, R,S-1-((2-(2-chloro-6-methylphenoxy)ethyl)amino)propan-2-ol]
- Rotarod: neurotoxic at (mice [3]; 0.5 h): 100 mg/kg
- MES: active at (mice [4]; 0.5 h): 30 mg/kg

SMILES: Cc1cccc(Cl)c1OCC(=O)N[C@H]1CC[C@H](O)CC1 [Compound 18, Trans-2-(2-chloro-6-methylphenoxy)-N-(4-hydroxycyclohexyl)acetamide]
- Number of animals active or toxic over the number tested (mice [3]; 30 mg/kg, 0.5 h): 0/8
- Number of animals active or toxic over the number tested (mice [3]; 30 mg/kg, 2.0 h): 0/8
- Number of animals active or toxic over the number tested (mice [3]; 100 mg/kg, 0.5 h): 2/8
- Number of animals active or toxic over the number tested (mice [3]; 100 mg/kg, 2.0 h): 0/8
- Number of animals active or toxic over the number tested (mice [3]; 300 mg/kg, 0.5 h): 8/8 (sedated)
- Number of animals active or toxic over the number tested (mice [3]; 300 mg/kg, 2.0 h): 0/8 (unable to grasp rotarod)
- Rotarod: neurotoxic at (mice [3]; 0.5 h): 100 mg/kg
- Number of animals active or toxic over the number tested (mice [6]; 30 mg/kg, 0.5 h): 0/4
- Number of animals active or toxic over the number tested (mice [6]; 30 mg/kg, 2.0 h): 0/4
- Number of animals active or toxic over the number tested (mice [6]; 100 mg/kg, 0.5 h): 4/4
- Number of animals active or toxic over the number tested (mice [6]; 100 mg/kg, 2.0 h): 0/4
- Number of animals active or toxic over the number tested (mice [6]; 300 mg/kg, 0.5 h): 4/4
- Number of animals active or toxic over the number tested (mice [6]; 300 mg/kg, 2.0 h): 4/4
- 8 Hz: active at (mice [6]; mice, ip, 0.5 h): 100 mg/kg
- Number of animals active or toxic over the number tested (mice [4]; 30 mg/kg, 0.5 h): 3/4
- Number of animals active or toxic over the number tested (mice [4]; 30 mg/kg, 2.0 h): 0/4
- Number of animals active or toxic over the number tested (mice [4]; 100 mg/kg, 0.5 h): 4/4
- Number of animals active or toxic over the number tested (mice [4]; 100 mg/kg, 2.0 h): 0/4
- Number of animals active or toxic over the number tested (mice [4]; 300 mg/kg, 0.5 h): 4/4
- Number of animals active or toxic over the number tested (mice [4]; 300 mg/kg, 2.0 h): 4/4
- MES: active at (mice [4]; 0.5 h): 30 mg/kg

SMILES: CCC(O)CNCCOc1c(C)cccc1Cl (centres unmarked) [Compound 3, R,S-1-((2-(2-chloro-6-methylphenoxy)ethyl)amino)butan-2-ol]
- Rotarod: neurotoxic at (mice [3]; 0.5 h): 100 mg/kg
- MES: active at (mice [4]; 0.5 h): 30 mg/kg

SMILES: Cc1cccc(Cl)c1OCC(=O)NC(C)C(=O)O (stereo not drawn) [Compound 13, R,S-(2-(2-chloro-6-methylphenoxy)acetyl)alanine]
- Antiseizure activity and preliminary toxicity screening: result (mice [2]): No activity

SMILES: Cc1cccc(Cl)c1OCCNC(C)CO (centres unmarked) [Compound 2, R,S-2-((2-(2-chloro-6-methylphenoxy)ethyl)amino)propan-1-ol]
- Rotarod: neurotoxic at (mice [3]; 0.5 h): MES: active at 100 Rotarod: neurotoxic at 100 mg/kg
- MES: active at (mice [4]; 0.5 h): MES: active at 100 Rotarod: neurotoxic at 100 mg/kg

SMILES: CC[C@@H](CO)NCCOc1c(C)cccc1Cl.Cl [Compound 6a, S-( +)-2-((2-(2-chloro-6-methylphenoxy)ethyl)amino)butan-1-ol hydrochloride]
- Rotarod: neurotoxic at (mice [3]; 0.5 h): MES: active at 100 Rotarod: neurotoxic at 100 mg/kg
- % of effect (I phase) (mice [7]; 30.0 mg/kg): 33.4%
- % of effect (II phase) (mice [7]; 30.0 mg/kg): 10.2%
- Time of licking paw ± SEM (I phase) (mice [7]; 30.0 mg/kg): 59.7 ± 6.4 s
- formalin test (I phase): active at (mice [7]): 30 mg/kg
- Prolongation of the time reaction (mice [8]; 0.031%): 60.0%
- Reaction time to painful stimulus (mice [8]; 0.031%): 5.6 ± 0.9 s
- Prolongation of the time reaction (mice [8]; 0.094%): 82.9%
- Reaction time to painful stimulus (mice [8]; 0.094%): 6.4 ± 0.8 s
- Prolongation of the time reaction (mice [8]; 0.125%): 348.6%
- Reaction time to painful stimulus (mice [8]; 0.125%): 15.7 ± 1.8 s
- Prolongation of the time reaction (mice [8]; 0.5%): 457.1%
- Reaction time to painful stimulus (mice [8]; 0.5%): 19.5 ± 0.5 s
- Prolongation of the time reaction (mice [8]; 2.0%): 437.1%
- Reaction time to painful stimulus (mice [8]; 2.0%): 18.8 ± 1.9 s
- Prolongation of the time reaction (mice [8]; […]): 5.7%
- Reaction time to painful stimulus (mice [8]; […]): 3.7 ± 0.6 s
- Inhibition of pain reaction (guinea pigs [9]; 0.5%): 75*** %
- Inhibition of pain reaction (guinea pigs [9]; […]): 63.89*** %
- Inhibition of pain reaction (guinea pigs [10]; 0.5%, 30 min): 93.75*** %
- Inhibition of pain reaction (guinea pigs [10]; 0.5%, 60 min): 43.75* %
- Inhibition of pain reaction (guinea pigs [10]; 0.5%, 120 min): 25%
- Inhibition of pain reaction (guinea pigs [10]; […], 5 min): 94.44*** %
- Inhibition of pain reaction (guinea pigs [10]; […], 60 min): 38.89* %
- MES: active at (mice [4]; 0.5 h): MES: active at 100 Rotarod: neurotoxic at 100 mg/kg

SMILES: CCC(NC(=O)COc1c(C)cccc1Cl)C(=O)O (centres unmarked) [Compound 16, R,S-2-(2-(2-chloro-6-methylphenoxy)acetamido)butanoic acid]
- Antiseizure activity and preliminary toxicity screening: result (mice [2]): No activity

SMILES: Cc1cccc(Cl)c1OCC(=O)NC(C)CO (centres unmarked) [Compound 11, R,S-2-(2-chloro-6-methylphenoxy)-N-(1-hydroxypropan-2-yl)acetamide]
- Rotarod: neurotoxic at (mice [3]; 0.5 h): 100 mg/kg
- MES: active at (mice [4]; 0.5 h): 300 mg/kg

SMILES: Cc1cccc(Cl)c1OCC(=O)NCC(C)O (centres unmarked) [Compound 10, R,S-2-(2-chloro-6-methylphenoxy)-N-(2-hydroxypropyl)acetamide]
- Rotarod: neurotoxic at (mice [3]; 0.5 h): 300 mg/kg
- ScPTZ: active at (mice [11]): 300 mg/kg

SMILES: CCC(CO)NC(=O)COc1c(C)cccc1Cl (centres unmarked) [Compound 12, R,S-2-(2-chloro-6-methylphenoxy)-N-(1-hydroxybutan-2-yl)acetamide]
- Rotarod: neurotoxic at (mice [3]; 0.5 h): 300 mg/kg
- ScPTZ: active at (mice [11]): 100 mg/kg
- MES: active at (mice [4]; 0.5 h): 300 mg/kg

SMILES: Cc1cccc(Cl)c1OCCN[C@@H]1CCCC[C@H]1O (relative stereo) [Compound 8, R,S-trans-2-((2-(2-chloro-6-methylphenoxy)ethyl)amino)cyclohexan-1-ol]
- Rotarod: neurotoxic at (mice [3]; 0.5 h): 100 mg/kg
- MES: active at (mice [4]; 0.5 h): 30 mg/kg

SMILES: Cc1cccc(Cl)c1OCCNCC(O)c1ccccc1 (centres unmarked) [Compound 9, R,S-2-((2-(2-chloro-6-methylphenoxy)ethyl)amino)-1-phenylethan-1-oll]
- Rotarod: neurotoxic at (mice [3]; 0.5 h): 100 mg/kg
- MES: active at (mice [4]; 0.5 h): 30 mg/kg

SMILES: CC(=O)[C@H]1CC[C@H]2[C@@H]3CC[C@H]4C[C@H](O)CC[C@]4(C)[C@H]3CC[C@]12C [Allopregnanolone]
- MES ED50 (mice [12]): > 100 mg/kg
- MES TPE (mice [12]): 0.17 h
- 6 Hz ED50 (mice [13]): 14.2 (10.3–19.4) mg/kg
- 6 Hz TPE (mice [13]): 0.17 h
- ScPTZ ED50 (mice [14]): 13.7 (10.1–18.7) mg/kg
- ScPTZ TPE (mice [14]): 0.17 h

SMILES: NCC1(CC(=O)O)CCCCC1 [Gabapentin]
- SNL ED50 (rats): 32 mg/kg

SMILES: CC(C)NCC(O)COc1cccc2ccccc12 (centres unmarked) [Propranolol, propranolol]
- MES ED50 (mice [12]; Table 3): MES: ED50 = 15–20 mg/kg

SMILES: Cc1cccc(Cl)c1OCC(=O)N[C@H](C)C(=O)O [Compound 14, R-(+)-(2-(2-chloro-6-methylphenoxy)acetyl)alanine]
- Antiseizure activity and preliminary toxicity screening: result (mice [2]): No activity

SMILES: O=C1NC(=O)C(c2ccccc2)(c2ccccc2)N1 [Phenytoin]
- Prolongation of the time reaction (mice [1]; 1.0%): 18%
- Reaction time to painful stimulus (mice [1]; 1.0%): 5.72 ± 0.63 s
- Prolongation of the time reaction (mice [1]; 2.0%): 84%
- Reaction time to painful stimulus (mice [1]; 2.0%): 8.90 ± 0.80 s
